Source: patent publication US4242354A, “2-(2-Thenolythio)-propionylglycine: method for its preparation and pharmaceutical formulations containing said compound” (Mediolanum Farmaceutici S.r.L., priority 1978, dated 1980)

How the values were obtained:
[1] = system: citric acid-induced experimental bronchitis; experiment: Experimental bronchitis due to citric acid in the guinea-pig; type: in vivo, spotted guinea-pigs, Morini strain; set-up: key to Microscopic Examination (Table 12), significance vs. controls (S) / Visualization of the bronchial tract, significance vs. controls (S) / Microscopic Examination (Table 14), significance vs. controls (S): h.s.: highly significant; Microscopic Examination score (Table 12; E, mean ± standard error) / Visualization of the bronchial tract score (E, mean ± standard error) / Microscopic Examination score (Table 14; E, mean ± standard error): scale not given here; conditions: 50 mg/kg; for Microscopic Examination score (Table 12; E, mean ± standard error): control 4.00 ± 0.25; for Microscopic Examination score (Table 14; E, mean ± standard error): control 3.00 ± 0.00; for Visualization of the bronchial tract score (E, mean ± standard error): control 2.83 ± 0.16
Description: Twenty-four spotted guinea-pigs, Morini strain, bodyweight 450 grams approximately, were used for the investigation, subdivided into 4 groups, each consisting of 6 animals, subjected to the following treatments:
Group 1: poisoning treatment with citric acid
The poisoning was made introducing the experimental animals into tight-sealed plexiglass cages containing a solution of 7.5 percent citric acid for 15 minutes daily, 6 days weekly, for 4 weeks.
The animals were sacrificed on the day after the last application, and the lungs were subjected to the same treatments and to the same assessments performed with the same scores already used in the case of the rat.

[2] = Stability test: physical properties and weight variations on heating; type: physicochemical
Description: (§1) The stability tests were carried out according to the Rogers' nonisothermic method suitably integrated by the evaluation of physical data, melting point, weight variation, and spectrophotometric assay. For each single compound, the tests were performed on a series of samples, with the weight of 100 milligrams, added for the wet tests with 1 ml of distilled water. […] The sample were kept in a thermostat at increasing temperatures, i.e. from 25° to 80° C. […] The temperature, programmed according to the Rogers' formula, resulted to be 40° C. at the end of the first hour, 50° C. at the end of the second hour, 57° C. at the end of the third hour, 63° C. at the end of the fourth hour, 69° C. at the end of the fifth hour, 73° C. at the end of the sixth hour, 77° C. at the end of the seventh hour and, as already specified, 80° C. at the end of the eighth hour.
Still in Table 5, the sample from 1 to 5 refer, for each of the two compounds, to the dry substance while the samples from 6 to 10 refer to the solution or to the aqueous suspension obtained as above specified.
In the case of the wet-treated samples, the final weight was only established on the samples No. 10 brought to dryness at 60° C. under vacuum after an 8-hour heating.

[3] = system: carbon tetrachloride poisoning; experiment: Protective activity in the carbon tetrachloride poisoning; type: in vivo, male rats (Sprague-Dawley)
Description: Fifty male rats (Sprague-Dawley, 180-200 grams bodyweight) were used for the investigation, subdivided into 5 groups: one group was given no treatment while the remaining 4 groups were poisoned for 7 consecutive days with CCl4 at the dosage of […] given subcutaneously.

dog = experiment: Chronic toxicity in the dog; type: in vivo; conditions: dogs
[4] = system: bronchopneumopathies of the pediatric age; experiment: Clinical trials in pediatry, mucolytic efficacy in bronchopneumopathies; type: in vivo, man; conditions: decrease from 292.4±92.1 g/Hg, pediatric patients
[5] = Solubility and organoleptic properties; type: physicochemical
[6] = Rogers' nonisothermic method: energies of activation, specific velocities, validity periods; type: physicochemical; conditions: for stability vs 2-thiopropionylglycine (II): comparison of the two compounds
Description: as §1
The data shown in Table 7 were worked out according to the Rogers' method, drawing up the values of the energies of activation of the decomposition reactions under dry and wet conditions, the specific rate constants as well as the validity period.

mercuric chloride = experiment: In vivo protective action against mercurial compounds; set-up: species or system male mice (Swiss strain); conditions: mercuric chloride 20 mg/kg ip, mice, 24 hours
Description: Forty male mice (Swiss strain, 22 grams mean bodyweight) were used for the investigation, subdivided into 4 groups treated as follows:
(1) mercuric chloride, 20 mg/kg/intraperitoneally;
(4) mercuric chloride 20 mg/kg/intraperitoneally+2-thiopropionylglycine 300 mg/kg/intraperitoneally.
Deaths occurred were recorded hourly in the first 5 hours, and thereafter after 24 hours.

[7] = Stability test: melting point before and after heating; type: physicochemical
Description: as §1
The melting point was established in a capillary tube, under identical conditions, on the samples No. 5 after heating for 8 hours in the previously specified conditions, and on the samples No. 10 after heating and evaporation to dryness as previously specified.

[8] = sample 1, dry, 1 hour 30 minutes
[9] = sample 3, dry, 5 hours 15 minutes
[10] = sample 10, wet, 8 hours, brought to dryness

CC(SC(=O)c1cccs1)C(=O)NCC(=O)O (centres unmarked) [compound (I), 2-(2-thenoylthio)-propionylglycine]
Microscopic Examination (Table 12), significance vs. controls (S) ([1]; Table 12, group 2, orally): h.s.
Microscopic Examination score (Table 12; E, mean ± standard error) ([1]; Table 12, group 2, orally): 2.00 ± 0.36
Microscopic Examination (Table 12), significance vs. controls (S) ([1]; Table 12, group 3, aerosol): h.s.
Microscopic Examination score (Table 12; E, mean ± standard error) ([1]; Table 12, group 3, aerosol): 2.33 ± 0.49
Microscopic Examination (Table 12), significance vs. controls (S) ([1]; Table 12, group 4, rectally): h.s.
Microscopic Examination score (Table 12; E, mean ± standard error) ([1]; Table 12, group 4, rectally): 1.83 ± 0.40
Microscopic Examination (Table 14), significance vs. controls (S) ([1]; Table 14, group 2, orally): h.s.
Microscopic Examination score (Table 14; E, mean ± standard error) ([1]; Table 14, group 2, orally): 0.83 ± 0.30
Microscopic Examination (Table 14), significance vs. controls (S) ([1]; Table 14, group 3, aerosol): h.s.
Microscopic Examination score (Table 14; E, mean ± standard error) ([1]; Table 14, group 3, aerosol): 1.00 ± 0.36
Microscopic Examination (Table 14), significance vs. controls (S) ([1]; Table 14, group 4, rectally): h.s.
Microscopic Examination score (Table 14; E, mean ± standard error) ([1]; Table 14, group 4, rectally): 0.66 ± 0.42
Visualization of the bronchial tract, significance vs. controls (S) ([1]; group 2, orally): h.s.
Visualization of the bronchial tract score (E, mean ± standard error) ([1]; group 2, orally): 1.16 ± 0.30
Visualization of the bronchial tract, significance vs. controls (S) ([1]; group 3, aerosol): h.s.
Visualization of the bronchial tract score (E, mean ± standard error) ([1]; group 3, aerosol): 1.00 ± 0.36
Visualization of the bronchial tract, significance vs. controls (S) ([1]; group 4, rectally): h.s.
Visualization of the bronchial tract score (E, mean ± standard error) ([1]; group 4, rectally): 1.00 ± 0.44
protective action, experimental bronchitis (citric acid) ([1]; guinea-pig): marked protective action
Color [2, 8]: white
Smell [2, 8]: almost absent
Weight Fin. [2, 8]: 95.4 mg
Weight Variations [2, 8]: -5.26%
Color ([2]; sample 2, dry, 3 hours): white
Weight Fin. ([2]; sample 2, dry, 3 hours): 94.5 mg
Weight Variations ([2]; sample 2, dry, 3 hours): -5.03%
Color [2, 9]: white
Smell [2, 9]: almost absent
Weight Fin. [2, 9]: 95.1 mg
Weight Variations [2, 9]: -5.37%
Color ([2]; sample 4, dry, 8 hours): white
Smell ([2]; sample 4, dry, 8 hours): almost absent
Weight Fin. ([2]; sample 4, dry, 8 hours): 94.9 mg
Weight Variations ([2]; sample 4, dry, 8 hours): -5.74%
Smell ([2]; sample 5, dry, 8 hours): almost absent
Weight Fin. ([2]; sample 5, dry, 8 hours): 194.1 mg
Weight Variations ([2]; sample 5, dry, 8 hours): -3.67%
Smell ([2]; sample 6, wet): almost absent
Smell ([2]; sample 7, wet): almost absent
Smell ([2]; sample 8, wet): almost absent
Smell ([2]; sample 9, wet): almost absent
Weight Fin. [2, 10]: 201.3 mg
Weight Variations [2, 10]: -2.94%
liver weight increase consequent to CCl4 ([3]; CCl4 0.5 ml/mg sc, 7 days, drugs intramuscularly, (I) 200 and 300 mg/kg, (II) 300 mg/kg): can prevent the liver weight increase
efficacy in comparison with 2-mercaptopropionylglycine ([3]; equivalent dosage, CCl4 poisoning, rat): statistically significant efficacy in preventing the liver weight increase as well as in reducing the liver fats levels
chronic toxicity results (dog): optimal
mean viscosimetric value of the mucus after treatment [4]: 155.4±61.3 g/Hg
odor [5]: odorless
taste [5]: practically tasteless
appearance in water ([5]; 100 milligrams with 1 ml of distilled water): white suspension
solubility ([5]; all other inorganic solvents (so in the source)): scarcely soluble
solubility ([5]; chloroform): soluble
solubility ([5]; saturated solution of NaHCO3): soluble
stability vs 2-thiopropionylglycine (II) ([6]; listed as 2-(2-thenoylthio)-propionyl-glycine (I)): markedly better stability
stability vs 2-thiopropionylglycine (II) ([6]; listed as 2-(2-thenoylthio)-propionylglycine (I)): markedly more stable than the correspondent 2-thiopropionylglycine (II)
Energy of activation of the decomposition reaction ([6]; dry): 12.28 kcal/mol
Validity period ([6]; dry): unlimited
K at 25° (specific rate constant) ([6]; dry, 25°): 0 h⁻¹
Energy of activation of the decomposition reaction ([6]; wet): 13.27 kcal/mol
deaths (mercuric chloride; 200 mg/kg ip): 10%
deaths (mercuric chloride; 300 mg/kg ip): 10%
melting point variation ([7]; after heating): no variations
Final m.p. wet conditions (Sample 10) ([7]; after heating 8 hours wet and evaporation to dryness): 166-167 °C
Final m.p. dry conditions (Sample 5) ([7]; after heating for 8 hours, dry): 166-167 °C
Initial m.p. ([7]; before heating): 166-167 °C
